# From patent US9464084B2, “P2X7 modulators” (Janssen Pharmaceutica NV, priority 2013, dated 2016)
# Biological target: P2X7 (Homo sapiens (Human), UniProt Q99572)
# Assay: P2X7 antagonism in human PBMCs (LPS + Bz-ATP induced IL-1β release, ELISA);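 note: PBMCs from donor human blood, with a further 1.5 h incubation of the cells in the assay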
# Format: cell-based
# Conditions: compound 1 μM, LPS 30 ng/ml, Bz-ATP 0.5 mM
# Description: Human blood was collected using a blood donor program. PBMCs were isolated from blood using a Ficoll density gradient technique. Briefly, blood was laid on Ficoll solution and centrifuged at RT for 20 minutes at 2000 rpm. The buffy layer (between red blood cells and plasma) was carefully collected by aspiration, washed with PBS and centrifuged again at 1500 rpm for 15 minutes. The resulting cell pellet was washed and plated on 96 well-plates for experiments. For the Mouse/Human Whole Blood experiments, 150 μl of either mouse or human blood was platted on 96 well-plates. Lipopolysaccharide (LPS) (30 ng/ml) was added to each well and incubated for 1 hour. Test compounds were then added and incubated for 30 minutes. The P2X7 agonist, 2′(3′)-O-(4-benzoylbenzoyl) adenosine 5′ triphosphate (Bz-ATP) was then added at a final concentration of 0.5 mM (PBMC) or 1 mM (blood). Cells were incubated for an additional 1.5 hours. At that point, supernatant was collected and stored for IL-1β assay using manufacturer's protocol for enzyme-linked immunosorbent assay (ELISA). Data was expressed as percent control, where control is defined as the difference in IL-1β release in LPS+Bz-ATP samples and LPS only samples. Data was plotted as response (% control) versus concentration to generate IC50 values.
# Sequence of P2X7 (Q99572 whole entry): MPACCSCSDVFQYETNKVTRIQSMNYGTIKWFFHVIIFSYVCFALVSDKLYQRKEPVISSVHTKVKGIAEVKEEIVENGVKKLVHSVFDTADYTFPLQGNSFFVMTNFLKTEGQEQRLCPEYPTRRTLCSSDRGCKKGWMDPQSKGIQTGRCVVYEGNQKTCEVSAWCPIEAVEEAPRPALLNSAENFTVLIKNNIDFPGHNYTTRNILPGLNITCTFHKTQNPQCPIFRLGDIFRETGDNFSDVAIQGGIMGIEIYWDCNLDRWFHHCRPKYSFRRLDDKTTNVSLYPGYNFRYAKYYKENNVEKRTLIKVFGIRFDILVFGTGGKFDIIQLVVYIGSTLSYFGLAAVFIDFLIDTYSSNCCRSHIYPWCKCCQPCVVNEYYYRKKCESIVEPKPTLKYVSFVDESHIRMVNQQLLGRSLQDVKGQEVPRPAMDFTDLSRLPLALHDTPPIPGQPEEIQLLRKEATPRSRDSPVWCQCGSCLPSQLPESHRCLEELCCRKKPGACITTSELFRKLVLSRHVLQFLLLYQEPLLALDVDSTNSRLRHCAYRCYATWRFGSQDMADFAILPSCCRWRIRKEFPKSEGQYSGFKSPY
row,SMILES,PBMC 1 μM (% control)
1,"Cn1nc2c(c1-c1ccccc1)CCN(C(=O)c1cccc(Cl)c1Cl)C2 [Example 102, 6-[(2,3-Dichlorophenyl)carbonyl]-2-methyl-3-phenyl-4,5,6,7-tetrahydro-2H-pyrazolo[3,4-c]pyridine]",18.0
2,"Cn1nc2c(c1-c1cccnc1)CCN(C(=O)c1cccc(C(F)(F)F)c1Cl)C2 [Example 107, 6-{[2-Chloro-3-(trifluoromethyl)phenyl]carbonyl}-2-methyl-3-pyridin-3-yl-4,5,6,7-tetrahydro-2H-pyrazolo[3,4-c]pyridine]",24.7
3,"O=C(c1cccc(C(F)(F)F)c1Cl)N1CCc2ncn(-c3cnccn3)c2C1 [Example 10, (2-Chloro-3-(trifluoromethyl)phenyl)(3-(pyrazin-2-yl)-6,7-dihydro-3H-imidazo[4,5-c]pyridin-5(4H)-yl)methanone]",76.5
4,"Cn1nc2c(c1-c1ccc(F)cc1)CCN(C(=O)c1cccc(C(F)(F)F)c1Cl)C2 [Example 105, 6-{[2-Chloro-3-(trifluoromethyl)phenyl]carbonyl}-3-(4-fluorophenyl)-2-methyl-4,5,6,7-tetrahydro-2H-pyrazolo[3,4-c]pyridine]",51.0
5,"C[C@H]1c2nnn(-c3cnccn3)c2CCN1C(=O)c1cccc(C(F)(F)F)c1Cl (single isomer, unassigned) [Example 75, (4 S*)-5-{[2-Chloro-3-(trifluoromethyl)phenyl]carbonyl}-4-methyl-1-pyrazin-2-yl-4,5,6,7-tetrahydro-1H-[1,2,3]triazolo[4,5-c]pyridine]",5.2
6,"O=C(c1cccc(Cl)c1Cl)N1CCc2c(ncn2-c2ccccc2)C1 [Example 3, (2,3-Dichlorophenyl)(1-phenyl-6,7-dihydro-1H-imidazo[4,5-c]pyridin-5(4H)-yl)methanone]",23.0

# Same assay, conditions: compound 10 μM, LPS 30 ng/ml, Bz-ATP 0.5 mM
row,SMILES,PBMC 10 μM (% control)
1,"CC1Cc2c(nnn2-c2cnccn2)CN1C(=O)c1cccc(C(F)(F)F)c1Cl (stereo not drawn) [Example 209, 5-{[2-Chloro-3-(trifluoromethyl)phenyl]carbonyl}-6-methyl-1-pyrazin-2-yl-4,5,6,7-tetrahydro-1H-[1,2,3]triazolo[4,5-c]pyridine]",−1.0
2,"C[C@@H]1Cc2c(nnn2-c2ccn[nH]2)[C@H](C)N1C(=O)c1cccc(C(F)(F)F)c1Cl [Example 297, (2-chloro-3-(trifluoromethyl)phenyl)((4S,6R)-4,6-dimethyl-1-(1H-pyrazol-5-yl)-6,7-dihydro-1H-[1,2,3]triazolo[4,5-c]pyridin-5(4H)-yl)methanone]",2.6
3,"C[C@H]1Cc2c(nnn2-c2ncc(F)cn2)CN1C(=O)c1ccnc(C(F)(F)F)c1Cl (single isomer, unassigned) [Example 183, (R*)-(3-chloro-2-(trifluoromethyl)pyridin-4-yl)(1-(5-fluoropyrimidin-2-yl)-6-methyl-6,7-dihydro-1H-[1,2,3]triazolo[4,5-c]pyridin-5(4H)-yl)methanone]",−1.2
4,"C[C@H]1Cc2c(nnn2-c2ncc(F)cn2)CN1C(=O)c1cccc(C(F)(F)F)c1F [Example 220, (6S)-1-(5-Fluoropyrimidin-2-yl)-5-{[2-fluoro-3-(trifluoromethyl)phenyl]carbonyl}-6-methyl-4,5,6,7-tetrahydro-1H-[1,2,3]triazolo[4,5-c]pyridine]",15.1
5,C[C@H]1c2ncn(-c3ccc(F)cn3)c2CCN1C(=O)c1cccc(C(F)(F)F)c1Cl (stereo in doubt) [Example 41],40.5
6,"CC1c2nnn(-c3ncccn3)c2CCN1C(=O)c1cccc(C(F)(F)F)c1Cl (single isomer, unassigned) [Example 88, (4R*)-5-{[2-Chloro-3-(trifluoromethyl)phenyl]carbonyl}-4-methyl-1-pyrimidin-2-yl-4,5,6,7-tetrahydro-1H-[1,2,3]triazolo[4,5-c]pyridine]",13.3
7,"Cc1c(C(=O)N2Cc3nnn(-c4ncc(F)cn4)c3C[C@H]2C)ccnc1C(F)(F)F (single isomer, unassigned) [Example 187, (S*)-(1-(5-fluoropyrimidin-2-yl)-6-methyl-6,7-dihydro-1H-[1,2,3]triazolo[4,5-c]pyridin-5(4H)-yl)(3-methyl-2-(trifluoromethyl)pyridin-4-yl)methanone]",−0.6
8,"C[C@@H]1c2ncn(-c3ccccn3)c2CCN1C(=O)c1cccc(C(F)(F)F)c1Cl (single isomer, unassigned) [Example 44, (4R*)-5-{[2-Chloro-3-(trifluoromethyl)phenyl]carbonyl}-4-methyl-1-pyridin-2-yl-4,5,6,7-tetrahydro-1H-imidazo[4,5-c]pyridine]",44.7
9,"CC1c2ncn(-c3ccccn3)c2CCN1C(=O)c1cccc(C(F)(F)F)c1F (stereo not drawn) [Example 19, (2-Fluoro-3-(trifluoromethyl)phenyl)(4-methyl-1-(pyridin-2-yl)-6,7-dihydro-1H-imidazo[4,5-c]pyridin-5(4H)-yl)methanone]",11.6
10,"C[C@@H]1Cc2c(nnn2-c2ccn[nH]2)[C@H](C)N1C(=O)c1cccc(C(F)(F)F)c1Cl [Example 309, (2-chloro-3-(trifluoromethyl)phenyl)((4S,6R)-4,6-dimethyl-1-(1H-pyrazol-5-yl)-6,7-dihydro-1H-[1,2,3]triazolo[4,5-c]pyridin-5(4H)-yl)methanone]",1.4
11,"CC1Cc2c(nnn2-c2ccccn2)CN1C(=O)c1cccc(C(F)(F)F)c1Cl (stereo not drawn) [Example 116, 5-{[2-Chloro-3-(trifluoromethyl)phenyl]carbonyl}-6-methyl-1-pyridin-2-yl-4,5,6,7-tetrahydro-1H-[1,2,3]triazolo[4,5-c]pyridine]",45.3
12,"CC1c2nnn(-c3ncccn3)c2CCN1C(=O)c1cccc(C(F)(F)F)c1Cl (stereo not drawn) [Example 80, 5-{[2-Chloro-3-(trifluoromethyl)phenyl]carbonyl}-4-methyl-1-pyrimidin-2-yl-4,5,6,7-tetrahydro-1H-[1,2,3]triazolo[4,5-c]pyridine]",4.6
13,"C[C@H]1Cc2c(nnn2-c2ccccn2)CN1C(=O)c1cccc(C(F)(F)F)c1Cl (single isomer, unassigned) [Example 118, 5-{[2-Chloro-3-(trifluoromethyl)phenyl]carbonyl}-(S*)-6-methyl-1-pyridin-2-yl-4,5,6,7-tetrahydro-1H-[1,2,3]triazolo[4,5-c]pyridine]",12.6
14,"C[C@H]1Cc2c(nnn2-c2ccccc2)CN1C(=O)c1cccc(C(F)(F)F)c1Cl [Example 288, (S)-(2-chloro-3-(trifluoromethyl)phenyl)(6-methyl-1-phenyl-6,7-dihydro-1H-[1,2,3]triazolo[4,5-c]pyridin-5(4H)-yl)methanone]",4.4
15,"CC1c2ncn(-c3ccc(F)cn3)c2CCN1C(=O)c1ccc(C(C)(C)C)cc1 (stereo not drawn) [Example 265, (4-(tert-butyl)phenyl)(1-(5-fluoropyridin-2-yl)-4-methyl-6,7-dihydro-1H-imidazo[4,5-c]pyridin-5(4H)-yl)methanone]",76.5
16,"C[C@H]1c2ncn(-c3ccc(F)cc3)c2CCN1C(=O)c1cccc(C(F)(F)F)c1Cl (single isomer, unassigned) [Example 47]",−1.1
17,"C[C@@H]1Cc2c(nnn2-c2ccccn2)CN1C(=O)c1cccc(C(F)(F)F)c1Cl (single isomer, unassigned) [Example 119, 5-{[2-Chloro-3-(trifluoromethyl)phenyl]carbonyl}-(R*)-6-methyl-1-pyridin-2-yl-4,5,6,7-tetrahydro-1H-[1,2,3]triazolo[4,5-c]pyridine]",20.0
18,"C[C@@H]1c2nnn(-c3ccc(F)cc3)c2C[C@H](C)N1C(=O)c1cccc(C(F)(F)F)c1Cl [Example 287, (2-chloro-3-(trifluoromethyl)phenyl)((4R,6S)-1-(4-fluorophenyl)-4,6-dimethyl-6,7-dihydro-1H-[1,2,3]triazolo[4,5-c]pyridin-5(4H)-yl)methanone]",−4.1
19,"C[C@H]1c2nnn(-c3ncc(F)cn3)c2CCN1C(=O)c1cccc(C(F)(F)F)c1Cl (single isomer, unassigned) [Example 157, (S*)-(2-Chloro-3-(trifluoromethyl)phenyl)(1-(5-fluoropyrimidin-2-yl)-4-methyl-6,7-dihydro-1H-[1,2,3]triazolo[4,5-c]pyridin-5(4H)-yl)methanone]",−1.4
20,"CC1Cc2c(nnn2-c2ccccc2)CN1C(=O)c1cccc(C(F)(F)F)c1Cl (stereo not drawn) [Example 290, (2-chloro-3-(trifluoromethyl)phenyl)(6-methyl-1-phenyl-6,7-dihydro-1H-[1,2,3]triazolo[4,5-c]pyridin-5(4H)-yl)methanone]",−11.2
21,"C[C@H]1Cc2c(nnn2-c2ncccc2F)CN1C(=O)c1cccc(C(F)(F)F)c1Cl (single isomer, unassigned) [Example 168, (6S*)-5-{[2-Chloro-3-(trifluoromethyl)phenyl]carbonyl}-1-(3-fluoropyridin-2-yl)-6-methyl-4,5,6,7-tetrahydro-1H-[1,2,3]triazolo[4,5-c]pyridine]",−4.2
22,"C[C@H]1Cc2c(nnn2-c2cnccn2)CN1C(=O)c1cccc(C(F)(F)F)c1Cl (single isomer, unassigned) [Example 212, (6S*)-5-{[2-Chloro-3-(trifluoromethyl)phenyl]carbonyl}-6-methyl-1-pyrazin-2-yl-4,5,6,7-tetrahydro-1H-[1,2,3]triazolo[4,5-c]pyridine]",17.4
23,"C[C@H]1Cc2c(nnn2-c2ccn[nH]2)[C@H](C)N1C(=O)c1cccc(C(F)(F)F)c1Cl [Example 319, (2-chloro-3-(trifluoromethyl)phenyl)((4S,6S)-4,6-dimethyl-1-(1H-pyrazol-5-yl)-6,7-dihydro-1H-[1,2,3]triazolo[4,5-c]pyridin-5(4H)-yl)methanone]",−6.8
24,"C[C@H]1c2nnn(-c3cnccn3)c2CCN1C(=O)c1cccc(C(F)(F)F)c1Cl (single isomer, unassigned) [Example 75, (4 S*)-5-{[2-Chloro-3-(trifluoromethyl)phenyl]carbonyl}-4-methyl-1-pyrazin-2-yl-4,5,6,7-tetrahydro-1H-[1,2,3]triazolo[4,5-c]pyridine]",−0.3
